Tests used:
[1] = set-up: species or system C57Bl/6 mice; conditions: mouse, in vivo
Protocol: For PTH administration, 6-8 week old wild type C57/B male mice were used. Rat PTH (1-34) (80 μg/Kg of body weight) was injected intraperitoneally 5×/week for 4 weeks (n=5). Control mice (n=4) were injected with an equivalent volume of vehicle. At the end of the treatment period, ionized serum calcium was measured by the Ciba/Corning 634 Ca^++/pH analyzer, and, after euthanasia, the hind limbs and forelimbs were dissected and utilized for cytologic and histologic analysis.

[2] = system: lin-Sca-1+c-Kit+ cells in bone marrow; assay: In vivo PTH administration: flow cytometry of lin-Sca-1+c-Kit+ cells; set-up: species or system C57Bl/6 mice; conditions: four weeks PTH; P<0.01, FIG. 5d
Description: Bone marrow mononuclear cells were isolated as described above. Single cell suspensions were then stained with biotinylated lineage antibodies (CD3, CD4, CD8, Ter119, Gr-1, Mac-1 and B220) and phycoerythrin conjugated anti-Sca-1 and anti-c-Kit (Pharmingen, San Diego, Calif.). Cells were then labeled with a secondary fluorescein isothiocyanante conjugated streptavidin and analyzed on a FACScalibur cytometer (Becton Dickinson and Co., Franklin Lakes, N.J.) using Cell Quest software. […]
For PTH administration, 6-8 week old wild type C57/B male mice were used. […] At the end of the treatment period, ionized serum calcium was measured by the Ciba/Corning 634 Ca^++/pH analyzer, and, after euthanasia, the hind limbs and forelimbs were dissected and utilized for cytologic and histologic analysis.
As treatment of stromal cells with PTH led to an increase in the ability of the stromal cell population to support hematopoietic stem cells, it was investigated whether these effects could be recapitulated in vivo. Wild-type C57Bl/6 mice were injected daily with PTH using an intermittent dosing schedule known to increase osteoblasts, and the frequencies of LTC-ICs in the bone marrow were measured. […]

peripheral blood cells = assay: Complete blood count during cyclophosphamide chemotherapy cycles; type: in vivo, C57Bl/6 mice
Protocol: Wild-type C57Bl/6 mice were treated with 5 mg of cyclophosphamide (Day 1). The day following injection of cyclophosphamide, mice received no treatment or were treated for 8 days with G-CSF (5 μg/day), 11 days with PTH (80 μg/kg/day) or a combination of G-CSF plus PTH. Mice that received a combination of both G-CSF and PTH received G-CSF treatment for 8 days and PTH treatment for 11 days. Following this treatment protocol, mice were injected with cyclophosphamide on Day 15 and treated with G-CSF, PTH or G-CSF and PTH as described above. The treatment protocol was then repeated for two subsequent cycles, as outlined in FIG. 7.
During the course of the four treatment cycles, peripheral blood complete blood count (CBC) analysis was performed every 2 to 3 days. This analysis involved the collection of 100 μl of peripheral blood from the tail vein of the mice, which was subsequently analyzed on a HEMAVET 850FS (Drew Scientific). To avoid any deleterious effects from repeated tail bleeds, each individual mouse was only bled once per week.

Rat PTH (1-34)
hypercalcemia by serum calcium measurements [1]: no evidence of hypercalcemia | lin-Sca-1+c-Kit+ cells compared with mock treated controls [2]: higher frequency and absolute number | WBC and NE counts following chemotherapy, effect of adding PTH (peripheral blood cells; PTH 80 μg/kg/day 11 days added to G-CSF): not altered | hematological response to chemotherapy (peripheral blood cells; mice that did not receive G-CSF, PTH or not): no differences
